In ChEMBL document CHEMBL1201862, “PubChem BioAssay data set” (2004):
Active and inactive are the calls of the source. Cut-off read from the data, not from the text of the source: actives have a measured IC50 and inactives only a lower limit.

Target: Envelope glycoprotein gp160 (Human immunodeficiency virus 1, UniProt Q6QLK5)
Assay: cell-free HIV fusion peptide-binding blockers – biochemical, uHTS, fluorescence dequenching, […] (AID 1986)

Sequence of Envelope glycoprotein gp160 (Q6QLK5 whole entry, the tested form may be a part): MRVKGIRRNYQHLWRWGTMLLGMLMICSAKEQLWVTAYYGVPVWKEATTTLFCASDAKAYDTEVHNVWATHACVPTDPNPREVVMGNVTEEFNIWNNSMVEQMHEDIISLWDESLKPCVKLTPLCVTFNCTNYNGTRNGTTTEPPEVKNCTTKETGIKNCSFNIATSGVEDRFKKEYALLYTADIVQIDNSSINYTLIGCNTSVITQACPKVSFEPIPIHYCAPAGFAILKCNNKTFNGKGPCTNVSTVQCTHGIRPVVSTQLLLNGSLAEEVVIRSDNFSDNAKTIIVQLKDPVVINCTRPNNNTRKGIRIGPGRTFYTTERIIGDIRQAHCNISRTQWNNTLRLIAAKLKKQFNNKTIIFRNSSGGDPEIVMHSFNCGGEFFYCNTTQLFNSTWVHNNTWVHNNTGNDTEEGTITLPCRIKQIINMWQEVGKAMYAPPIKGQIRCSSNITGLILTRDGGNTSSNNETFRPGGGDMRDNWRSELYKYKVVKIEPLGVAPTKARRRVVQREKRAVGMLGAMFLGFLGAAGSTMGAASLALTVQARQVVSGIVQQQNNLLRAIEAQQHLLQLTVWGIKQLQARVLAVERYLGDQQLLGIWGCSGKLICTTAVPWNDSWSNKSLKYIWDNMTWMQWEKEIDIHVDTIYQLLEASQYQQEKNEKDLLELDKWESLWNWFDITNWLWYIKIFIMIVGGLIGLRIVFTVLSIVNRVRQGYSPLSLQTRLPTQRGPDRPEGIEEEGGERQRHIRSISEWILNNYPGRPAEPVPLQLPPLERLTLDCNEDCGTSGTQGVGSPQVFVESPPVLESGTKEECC

COc1ccc(C(=O)/C=C/c2ccc(-c3ccccc3)cc2)cc1CSCC(=O)O
IC50: 21.5 µM (active)
